pIC50: −log10 of the molar value.

The target in the assay is T1, human TSHR (Homo sapiens, UniProt P16473).
T1 construct: expressed in transfected cells
T1 sequence (P16473 21-764): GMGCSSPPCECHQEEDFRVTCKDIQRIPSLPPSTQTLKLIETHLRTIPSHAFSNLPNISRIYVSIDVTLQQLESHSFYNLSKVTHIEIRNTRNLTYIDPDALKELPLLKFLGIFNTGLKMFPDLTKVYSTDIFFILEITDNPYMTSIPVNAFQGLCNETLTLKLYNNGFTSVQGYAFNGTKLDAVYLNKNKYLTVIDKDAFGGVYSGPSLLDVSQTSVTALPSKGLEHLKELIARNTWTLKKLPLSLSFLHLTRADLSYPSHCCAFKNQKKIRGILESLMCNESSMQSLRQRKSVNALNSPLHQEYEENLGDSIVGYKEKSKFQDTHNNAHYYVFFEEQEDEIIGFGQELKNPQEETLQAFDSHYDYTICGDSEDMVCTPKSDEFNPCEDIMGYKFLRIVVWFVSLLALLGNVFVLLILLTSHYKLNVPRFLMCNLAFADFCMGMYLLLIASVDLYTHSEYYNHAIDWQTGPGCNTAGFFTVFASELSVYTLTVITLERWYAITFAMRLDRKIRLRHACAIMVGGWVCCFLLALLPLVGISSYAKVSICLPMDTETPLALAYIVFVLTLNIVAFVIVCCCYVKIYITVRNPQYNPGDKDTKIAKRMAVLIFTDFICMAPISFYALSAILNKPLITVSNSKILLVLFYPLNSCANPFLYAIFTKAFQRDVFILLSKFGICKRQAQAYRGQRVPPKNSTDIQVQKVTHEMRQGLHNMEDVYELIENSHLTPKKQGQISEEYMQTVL
Briefly: Measurement of antagonist activity using TSH-induced cAMP production in human TSHR-stably expressing CHO cells. It is filed as cell-based. The settings on record: human TSH final concentration 50 ng/mL. Here is the method: Measurement of Antagonist Activity Using TSH-induced cAMP Production in Human TSHR-stably Expressing CHO Cells as an Indicator
A gene sequence of human TSHR (reference number NM_000369.2) was inserted into a multiple cloning site of pcDNA3.1(+). The prepared plasmid vector was introduced into CHO cells by a lipofection method to establish human TSHR stably expressing CHO cells. The obtained cells were seeded in a poly-D-lysine-coated 96-well plate at 5 x 10^4 cells/well, and cultured for 1 day in F12 medium containing 10% FBS, 400 µg/mL G418, 50 U/mL penicillin, and 50 µg/mL streptomycin under conditions of 37°C and 5% CO2. After removing a medium, the cells were washed twice with 100 µL per well of an assay buffer (Hanks' Balanced Salt Solution containing 20 mM HEPES and 1 mM IBMX). 30 µL of an assay buffer containing a test compound was added to a well, and the mixture was incubated at room temperature for 15 minutes. Next, 30 µL of an assay buffer containing human TSH (R&D Systems, Inc., final concentration 50 ng/mL) was added, and the mixture was incubated at 37°C for 1 hour. The supernatant was removed, and Lysis and Detection Buffer 2 (Cisbio) was added to prepare a cell lysate by incubating at room temperature for 1 hour. According to the instructions for use of a cAMP Gs HiRange kit (Cisbio), a cell lysate was reacted with d2-labeled cAMP and an anti-cAMP Europium Cryptate labeled antibody (Cisbio) in a 384-well white microplate. Next, a fluorescence intensity ratio (measurement wavelengths 665 nm/620 nm) was measured using a multiplate reader (PHERAstar FSX, BMG LABTECH Japan). A fluorescence intensity ratio of each sample was converted into a cAMP content using a standard curve. A cAMP content was converted into a percentage of a control value, and a cAMP production rate was calculated. Using Prism (Graph Pad Software Inc.), a cAMP production rate was plotted against a test compound concentration, and an IC50 value was calculated. The IC50 of each test compound is shown in the above tables. In the tables, IC50 < 3.0 µM was denoted as A, and 3.0 µM ≤ IC50 < 30 µM was denoted as B. The case where activity was observed but an IC50 value could not be calculated was denoted as C.
In the case of `C[C@@H]1CC[C@@H](NC(N)=O)C(=O)N1Cc1cc(Br)ccc1F` (relative stereo) [Example A-1, 1-((3R^*,6R^*)-1-(5-bromo-2-fluorobenzyl)-6-methyl-2-oxopiperidin-3-yl)urea], the pIC50 (commonly the negative decadic logarithm of the IC50, by convention in mol/L) was 4.52 to 5.52. `CN(C)Cc1ccc(NC(N)=O)c(=O)n1Cc1cc(C(F)(F)F)cc(Cl)c1F` [Example E-3, 1-(1-(3-chloro-2-fluoro-5-(trifluoromethyl)benzyl)-6-((dimethylamino)methyl)-2-oxo-1,2-dihydropyridin-3-yl)urea]: the pIC50 was over 5.52. For `NC(=O)N[C@@H]1Cc2ccc(C(N)=O)cc2N(Cc2cc(C(F)(F)F)ccc2F)C1=O` [Example C-30, (R)-1-(2-fluoro-5-(trifluoromethyl)benzyl)-2-oxo-3-ureido-1,2,3,4-tetrahydroquinolin-7-carboxamide] the value was 4.52 to 5.52. For `NC(=O)N[C@@H]1Cc2ccc(CO)cc2N(Cc2cc(C(F)F)ccc2F)C1=O` [Example C-16, (R)-1-(1-(5-(difluoromethyl)-2-fluorobenzyl)-7-(hydroxymethyl)-2-oxo-1,2,3,4-tetrahydroquinolin-3-yl)urea] the value was over 5.52; for `Cc1ccc(NC(N)=O)c(=O)n1Cc1cc(C(F)(F)F)cc(Cl)c1F` [Example B-5, 1-(1-(3-chloro-2-fluoro-5-(trifluoromethyl)benzyl)-6-methyl-2-oxo-1,2-dihydropyridin-3-yl)urea], over 5.52; for `NC(=O)N[C@@H]1Cc2ccc(C(F)F)cc2N(Cc2cccc(C(F)(F)F)n2)C1=O` [Example F-2, (R)-1-(7-(difluoromethyl)-2-oxo-1-((6-(trifluoromethyl)pyridin-2-yl)methyl)-1,2,3,4-tetrahydroquinolin-3-yl)urea], over 5.52. `NC(=O)N[C@@H]1Cc2ccc(C(F)F)cc2N(Cc2cc(C(F)(F)F)ccc2F)C1=O` [Example C-10, (R)-1-(7-(difluoromethyl)-1-(2-fluoro-5-(trifluoromethyl)benzyl)-2-oxo-1,2,3,4-tetrahydroquinolin-3-yl)urea] showed a negative-log IC50 (pIC50) of over 5.52. For `CN(C)C[C@@H]1CC[C@@H](NC(N)=O)C(=O)N1Cc1cc(C(F)(F)F)ccc1F` [Example D-9, 1-((3R,6S)-6-((dimethylamino)methyl)-1-(2-fluoro-5-(trifluoromethyl)benzyl)-2-oxopiperidin-3-yl)urea] the value was under 4.52; for `Cc1ccc2c(c1)N(Cc1cccc(C(F)(F)F)c1)C(=O)[C@H](NC(N)=O)C2` [Example C-6, (R)-1-(7-methyl-2-oxo-1-(3-(trifluoromethyl)benzyl)-1,2,3,4-tetrahydroquinolin-3-yl)urea], over 5.52. For `CO[C@@H](C)C(=O)N[C@@H]1CC[C@@H](C(F)(F)F)N(Cc2cc(C(F)(F)F)ccc2F)C1=O` [Example A-25, (S)-N-((3R,6S)-1-(2-fluoro-5-(trifluoromethyl)benzyl)-2-oxo-6-(trifluoromethyl)piperidin-3-yl)-2-methoxypropanamide] the value was under 4.52; for `NC(=O)N[C@@H]1Cc2cscc2N(Cc2cccc(C(F)(F)F)c2)C1=O` [Example C-22, (R)-1-(2-oxo-1-(3-(trifluoromethyl)benzyl)-1,2,3,4-tetrahydrothieno[3,4-b]pyridin-3-yl)urea], over 5.52. `C[C@@H]1CC[C@@H](NC(N)=O)C(=O)N1Cc1cc(C(F)F)ccc1F` (relative stereo) [Example A-2, 1-((3R^*,6R^*)-1-(5-(difluoromethyl)-2-fluorobenzyl)-6-methyl-2-oxopiperidin-3-yl)urea] had a negative logarithm of the IC50 (pIC50) of over 5.52.

In turn, `C[C@@H]1CC[C@@H](NC(N)=O)C(=O)N1Cc1cc(C(F)(F)F)cc(Cl)c1F` (relative stereo) [Example A-3, 1-((3R^*,6R^*)-1-(3-chloro-2-fluoro-5-(trifluoromethyl)benzyl)-6-methyl-2-oxopiperidin-3-yl)urea] showed a pIC50 of over 5.52.

On to `C[C@@H]1CC[C@@H](NC(N)=O)C(=O)N1Cc1cc(C(F)(F)F)ccc1F` [Example A-13, 1-((3R,6R)-1-(2-fluoro-5-(trifluoromethyl)benzyl)-6-methyl-2-oxopiperidin-3-yl)urea], for which the negative-log IC50 (pIC50) is over 5.52.

Take `NC(=O)N[C@@H]1Cc2ccc(C(F)(F)F)cc2N(Cc2cc(C(F)F)ccc2F)C1=O` [Example C-15, (R)-1-(1-(5-(difluoromethyl)-2-fluorobenzyl)-2-oxo-7-(trifluoromethyl)-1,2,3,4-tetrahydroquinolin-3-yl)urea]: the pIC50 is over 5.52. `NC(=O)N[C@@H]1Cc2ccc(C(=O)O)cc2N(Cc2cc(C(F)(F)F)ccc2F)C1=O` [Example C-29, (R)-1-(2-fluoro-5-(trifluoromethyl)benzyl)-2-oxo-3-ureido-1,2,3,4-tetrahydroquinolin-7-carboxylic acid]: the negative-log IC50 (pIC50) was under 4.52. Take `NC(=O)Nc1cc(Br)cn(Cc2cc(C(F)(F)F)ccc2F)c1=O` [Example B-1, 1-(5-bromo-1-(2-fluoro-5-(trifluoromethyl)benzyl)-2-oxo-1,2-dihydropyridin-3-yl)urea]: the pIC50 is over 5.52. For the molecule `Cc1ccc(NC(=O)NC2CC2)c(=O)n1Cc1cc(C(F)(F)F)cc(Cl)c1F` [Example B-11, 1-(1-(3-chloro-2-fluoro-5-(trifluoromethyl)benzyl)-6-methyl-2-oxo-1,2-dihydropyridin-3-yl)-3-cyclopropylurea], the negative-log IC50 (pIC50) was over 5.52. For `NC(=O)N[C@@H]1Cc2ccccc2N(CC2CCCCC2)C1=O` [Example C-27, (R)-1-(1-(cyclohexylmethyl)-2-oxo-1,2,3,4-tetrahydroquinolin-3-yl)urea] the value was under 4.52; for `NC(=O)N[C@@H]1Cc2ccc(F)cc2N(Cc2cc(C(F)F)ccc2F)C1=O` [Example C-11, (R)-1-(1-(5-(difluoromethyl)-2-fluorobenzyl)-7-fluoro-2-oxo-1,2,3,4-tetrahydroquinolin-3-yl)urea], over 5.52. For `Cc1ncc(NC(N)=O)c(=O)n1Cc1cc(C(F)(F)F)cc(Cl)c1F` [Example B-8, 1-(1-(3-chloro-2-fluoro-5-(trifluoromethyl)benzyl)-2-methyl-6-oxo-1,6-dihydropyrimidin-5-yl)urea], the pIC50 was over 5.52. For `NC(=O)Nc1ccc2n(c1=O)CC(c1cccc(C(F)(F)F)c1)C2` (stereo not shown) [Example E-7, 1-(5-oxo-2-(3-(trifluoromethyl)phenyl)-1,2,3,5-tetrahydroindolizin-6-yl)urea] the value was 4.52 to 5.52. The molecule `NC(=O)Nc1ccc(CO)n(Cc2cc(C(F)(F)F)cc(Cl)c2F)c1=O` [Example E-1, 1-(1-(3-chloro-2-fluoro-5-(trifluoromethyl)benzyl)-6-(hydroxymethyl)-2-oxo-1,2-dihydropyridin-3-yl)urea] showed a pIC50 of over 5.52. For `COCc1ccc(NC(N)=O)c(=O)n1Cc1cc(C(F)(F)F)cc(Cl)c1F` [Example E-2, 1-(1-(3-chloro-2-fluoro-5-(trifluoromethyl)benzyl)-6-(methoxymethyl)-2-oxo-1,2-dihydropyridin-3-yl)urea] the value was over 5.52; for `N#Cc1ccc(NC(N)=O)c(=O)n1Cc1cc(C(F)(F)F)ccc1F` [Example B-7, 1-(6-cyano-1-(2-fluoro-5-(trifluoromethyl)benzyl)-2-oxo-1,2-dihydropyridin-3-yl)urea], over 5.52.

(Values after patent publication EP4818157A1, “N-SUBSTITUTED CYCLIC AMIDE COMPOUND” (Kissei Pharmaceutical Co., Ltd., priority 2023, dated 2025).)
